Reference: patent publication US11136347B2, “Crystalline forms of a fatty acid bile acid conjugate, preparation method thereof and use thereof” (Crystal Pharmaceutical (Suzhou) Co., Ltd., priority 2017, dated 2021)

Legend:
Assay type in all cases: physicochemical
[1] = Stability study: storage in open dishes, crystalline form checked by XRPD; conditions: for Form change: XRPD
Procedure: Solid samples of Form CS3 were stored under different conditions of 25° C./60% RH and 40° C./75% RH in open dishes for one year. Crystalline form was checked by XRPD.
Form CS8 were stored in open dishes under 25° C./60% RH, 40° C./75% RH and 60° C./75% RH conditions for three weeks, and sampled for XRPD test.

[2] = Hygroscopicity study by dynamic vapor sorption (DVS); conditions: for The definition of hygroscopicity: Chinese Pharmacopoeia 2015 edition, 25° C. +/−1° C.; for The definition of hygroscopicity / Weight gain under 80% Relative Humidity: 80% RH; for Weight gain under 80% Relative Humidity: DVS
Procedure: Dynamic vapor sorption (DVS) was applied to test hygroscopicity of Form CS3 and the solid disclosed in CN100386339C with about 15 mg of samples. […] DVS plot of test hygroscopicity of Form CS3 is depicted in FIG. 1G. What's more, the crystalline form of Form CS3 didn't change after DVS test, which is depicted in FIG. 1H.
(§1) Dynamic vapor sorption (DVS) was applied to test hygroscopicity of Form CS2 with about 10 mg of samples. […] As depicted in FIG. 1I, weight gain of the solid disclosed in prior art under 80% RH is 2.44%. The hygroscopicity of Form CS2 is lower than that of prior art.
Dynamic vapor sorption (DVS) was applied to test hygroscopicity of Form CS5 with about 8 mg of samples. […] As depicted in FIG. 1I, weight gain of the solid disclosed in prior art under 80% RH is 2.44%. The hygroscopicity of Form CS5 is lower than that of prior art.
as §1, with “CS8” for “CS2”, “7” for “10”, “sample.” for “samples.”, “art. […] The XRPD patterns before and after DVS were shown in FIG. 4F, top: the XRPD pattern before DVS; bottom: XRPD pattern after DVS.” for “art.”

[3] = Particle size distribution (Microtrac S3500 laser particle size analyzer, wet mode); conditions: after ultrasonication for 30 seconds, dispersion medium Isopar G
Procedure: The particle size distribution data in the present disclosure were acquired by an S3500 laser particle size analyzer of Microtrac. Microtrac S3500 is equipped with an SDC (Sample Delivery Controller). The test was carried out in wet mode, and the dispersion medium is Isopar G. The parameters are as follows:
(§2) The particle size distribution of Form CS3 and the solid disclosed in CN100386339C were tested after ultrasonication for 30 seconds. The average particle size of Form CS3 is 26.3 μm, and D90 is 62.8 μm. The average particle size and D90 of the solid disclosed in prior art are 452.5 μm and 870.3 μm. Compared with prior art, Form CS3 has smaller particle size, which increases the specific surface area of the drug substance, improves the dissolution rate of drug, thereby facilitating drug absorption and further improving the bioavailability of the drug.
as §2, with “Form CS2” for “Form CS3”, “seconds. An” for “seconds. The”, “is 41.9” for “is 26.3”, “is 87.5 μm, while the” for “is 62.8 μm. The”

[4] = listed as solid disclosed in prior art

| Structure (SMILES) | Time for which the crystalline form doesn't change (stable) ([1]; 25° C./60% RH) | Time for which the crystalline form doesn't change (stable) ([1]; 40° C./75% RH) | Time for which the crystalline form doesn't change (stable) ([1]; 60° C./75% RH) | The definition of hygroscopicity [2] | Weight gain under 80% Relative Humidity [2] | Form change before and after DVS test (XRPD) [2] | D10 [3] | D50 [3] | D90 [3] | MV (average particle diameter calculated by volume) [3] | other results |
| --- | --- | --- | --- | --- | --- | --- | --- | --- | --- | --- | --- |
| CCCCCCCCCCCCCCCCCCCC(=O)N[C@H]1CC[C@@]2(C)[C@@H](C1)C[C@@H](O)[C@@H]1[C@@H]2C[C@H](O)[C@]2(C)[C@@H]([C@H](C)CCC(=O)O)CC[C@@H]12 [Form CS2, 3β-arachidylamido-7α,12α-dihydroxy-5β-cholan-24-oic acid] | at least 3 weeks | at least 3 weeks | at least 3 weeks | slightly hygroscopic (Increase in mass is less than 2 percent and equal to or greater than 0.2 percent) | 0.46% | No form change | 9.7 μm | 27.9 μm | 87.5 μm | 41.9 μm |  |
| CCCCCCCCCCCCCCCCCCCC(=O)N[C@H]1CC[C@@]2(C)[C@@H](C1)C[C@@H](O)[C@@H]1[C@@H]2C[C@H](O)[C@]2(C)[C@@H]([C@H](C)CCC(=O)O)CC[C@@H]12 [Form CS5, 3β-arachidylamido-7α,12α-dihydroxy-5β-cholan-24-oic acid] | at least 3 weeks | at least 3 weeks | at least 3 weeks | slightly hygroscopic (Increase in mass is less than 2 percent and equal to or greater than 0.2 percent) | 0.35% | No form change |  |  |  | 75.6 μm |  |
| CCCCCCCCCCCCCCCCCCCC(=O)N[C@H]1CC[C@@]2(C)[C@@H](C1)C[C@@H](O)[C@@H]1[C@@H]2C[C@H](O)[C@]2(C)[C@@H]([C@H](C)CCC(=O)O)CC[C@@H]12 [Form CS3, 3β-arachidylamido-7α,12α-dihydroxy-5β-cholan-24-oic acid] | at least 3 weeks | at least 3 weeks | at least 3 weeks |  | 0.15% | didn't change | 2.0 μm | 12.3 μm | 62.8 μm | 26.3 μm | Form change ([1]; 25° C./60% RH, one year): No form change; Form change ([1]; 40° C./75% RH, one year): No form change |
| CCCCCCCCCCCCCCCCCCCC(=O)N[C@H]1CC[C@@]2(C)[C@@H](C1)C[C@@H](O)[C@@H]1[C@@H]2C[C@H](O)[C@]2(C)[C@@H]([C@H](C)CCC(=O)O)CC[C@@H]12 [Solid disclosed in CN100386339C, 3β-arachidylamido-7α,12α-dihydroxy-5β-cholan-24-oic acid, reference compound] |  |  |  |  | 2.44% |  | 95.0 μm | 398.8 μm | 870.3 μm | 452.5 μm | The definition of hygroscopicity [2, 4]: hygroscopic (Increase in mass is less than 15 percent and equal to or greater than 2 percent); Weight gain under 80% Relative Humidity ([2]; listed as amorphous solid): 2.44%; Weight gain under 80% Relative Humidity [2, 4]: 2.44%; Weight gain under 80% Relative Humidity ([2]; listed as solid of prior art): 2.44%; D90 ([3]; listed as prior art): 870.3 μm; MV (average particle diameter calculated by volume) ([3]; listed as prior art): 452.5 μm; D90 [3, 4]: 870.3 μm; MV (average particle diameter calculated by volume) [3, 4]: 452.5 μm |
| CCCCCCCCCCCCCCCCCCCC(=O)N[C@H]1CC[C@@]2(C)[C@@H](C1)C[C@@H](O)[C@@H]1[C@@H]2C[C@H](O)[C@]2(C)[C@@H]([C@H](C)CCC(=O)O)CC[C@@H]12 [Form CS8, 3β-arachidylamido-7α,12α-dihydroxy-5β-cholan-24-oic acid] |  |  |  |  | 0.40% | No form change |  |  |  |  | Form change ([1]; 25° C./60% RH, three weeks): no form change; Form change ([1]; 40° C./75% RH, three weeks): no form change; Form change ([1]; 60° C./75% RH, three weeks): no form change |
